Measurements published in patent US8865734B2 (priority 2010, dated 2014).
Values after ≈ are worked out from the molar mass of the structure shown.

Assays:
[1] = test system: M. tuberculosis inside the host macrophage; assay: QIM: Quantification of Intracellular Mycobacteria (intracellular growth assay, phenotypic cell-based); settings: Mycobacterium tuberculosis; MIC, 80% bacterial growth inhibition; intracellular growth; read-out: QIM
From the text: Accordingly, a phenotypic cell-based assay, suitable for high throughput screening, which allows for the search of compounds that would prevent M. tuberculosis multiplication inside the host macrophage was utilized (WO2010003533A2), overcoming many of the numerous and burdensome steps involved in previous methodologies (Arain et al., 1996).
(§1) A 120,000 small molecule compound library was screened using a validated phenotypic cell-based assay (WO2010003533A2). Active compounds from the primary screen were confirmed via dose response in the intracellular (QIM) assay and an in vitro (QUM) assay, wherein the abbreviation “QIM” stands for Quantification of Intracellular Mycobacteria and the abbreviation “QUM” stands for Quantification of in vitro grown Mycobacteria. […] The MIC is the minimum concentration of compound required to obtain 80% bacterial growth inhibition.
(§2) The imidazopyridine compounds (scaffolds Ia and Ib; see Table 1) underwent derivatization according to the methods outlined below (Schemes 1-13). Resulting derivatives were examined for inhibitory activity (MIC) using the assays described above (Example 1) and the results are summarized in Table 1.

[2] = test system: in vitro grown Mycobacteria (M. tuberculosis); assay: QUM: Quantification of in vitro grown Mycobacteria (in vitro growth fluorescence assay); format: cell-based; settings: Mycobacterium tuberculosis; MIC, 80% bacterial growth inhibition; in vitro growth; read-out: QUM
From the text: as §1, §2

SMILES	MIC [1] [µM]	MIC [2] [µM]
Cc1nc2c(Cl)cccn2c1C(=O)NCc1ccccc1 [Compound 27, N-Benzyl-8-chloro-2-methylimidazo[1,2-a]pyridine-3-carboxamide]	> 20	> 20
Cc1nc2cc(Cl)ccn2c1C(=O)NCc1ccccc1 [Compound 28, N-Benzyl-7-chloro-2-methylimidazo[1,2-a]pyridine-3-carboxamide]	1 to 20 (≈ 0.3 to 6 µg/mL)	> 20
Cc1nc2ccc(Cl)cn2c1C(=O)NCc1ccccc1 [Compound 29, N-Benzyl-6-chloro-2-methylimidazo[1,2-a]pyridine-3-carboxamide]	1 to 20 (≈ 0.3 to 6 µg/mL)	1 to 20 (≈ 0.3 to 6 µg/mL)
Cc1nc2c(C)cccn2c1C(=O)NCc1ccccc1 [Compound 30, N-Benzyl-2,8-dimethylimidazo[1,2-a]pyridine-3-carboxamide]	> 20	> 20
Cc1ccn2c(C(=O)NCc3ccccc3)c(C)nc2c1 [Compound 31, N-Benzyl-2,7-dimethylimidazo[1,2-a]pyridine-3-carboxamide]	< 1	1 to 20 (≈ 0.279 to 5.59 µg/mL)
Cc1ccc2nc(C)c(C(=O)NCc3ccccc3)n2c1 [Compound 32, N-Benzyl-2,6-dimethylimidazo[1,2-a]pyridine-3-carboxamide]	< 1	< 1
Cc1nc2cccc(C)n2c1C(=O)NCc1ccccc1 [Compound 33, N-Benzyl-2,5-dimethylimidazo[1,2-a]pyridine-3-carboxamide]	> 20	> 20
Cc1nc2ccc(F)cn2c1C(=O)NCc1ccccc1 [Compound 34, N-Benzyl-6-fluoro-2-methylimidazo[1,2-a]pyridine-3-carboxamide]	1 to 20 (≈ 0.283 to 5.67 µg/mL)	1 to 20 (≈ 0.283 to 5.67 µg/mL)
Cc1nc2cc(C#N)ccn2c1C(=O)NCc1ccccc1 [Compound 35, N-Benzyl-7-cyano-2-methylimidazo[1,2-a]pyridine-3-carboxamide]	> 20	> 20
Cc1nc2ccc(C#N)cn2c1C(=O)NCc1ccccc1 [Compound 36, N-Benzyl-6-cyano-2-methylimidazo[1,2-a]pyridine-3-carboxamide]	> 20	> 20
Cc1nc2cc(-c3ccccc3)ccn2c1C(=O)NCc1ccccc1 [Compound 37, N-Benzyl-2-methyl-7-phenylimidazo[1,2-a]pyridine-3-carboxamide]	> 20	> 20
Cc1nc2ccc(-c3ccccc3)cn2c1C(=O)NCc1ccccc1 [Compound 38, N-Benzyl-2-methyl-6-phenylimidazo[1,2-a]pyridine-3-carboxamide]	> 20	> 20
Cc1nc2c(F)cccn2c1C(=O)NCc1ccccc1 [Compound 39, N-Benzyl-8-fluoro-2-methylimidazo[1,2-a]pyridine-3-carboxamide]	1 to 20 (≈ 0.283 to 5.67 µg/mL)	1 to 20 (≈ 0.283 to 5.67 µg/mL)
Cc1nc2c(C(F)(F)F)cccn2c1C(=O)NCc1ccccc1 [Compound 40, N-Benzyl-2-methyl-8-(trifluoromethyl)imidazo[1,2-a]pyridine-3-carboxamide]	> 20	> 20
COc1cccn2c(C(=O)NCc3ccccc3)c(C)nc12 [Compound 41, N-Benzyl-8-methoxy-2-methylimidazo[1,2-a]pyridine-3-carboxamide]	> 20	> 20
Cc1nc2c(C#N)cccn2c1C(=O)NCc1ccccc1 [Compound 42, N-Benzyl-8-cyano-2-methylimidazo[1,2-a]pyridine-3-carboxamide]	> 20	> 20
Cc1nc2c(O)cccn2c1C(=O)NCc1ccccc1 [Compound 43, N-Benzyl-8-hydroxy-2-methylimidazo[1,2-a]pyridine-3-carboxamide]	> 20	> 20

SMILES	MIC [1] [µM]	MIC [2] [µM]
Cc1nc2ccc(Cl)cn2c1C(=O)NCc1ccc(-c2ccccc2)cc1 [Compound 44]	< 1	< 1
Cc1nc2cc(Cl)ccn2c1C(=O)NCc1ccc(-c2ccccc2)cc1 [Compound 45]	< 1	< 1
CCc1nc2ccccn2c1C(=O)NCc1ccccc1 [Compound 46, N-Benzyl-2-ethylimidazo[1,2-a]pyridine-3-carboxamide]	1 to 20 (≈ 0.279 to 5.59 µg/mL)	1 to 20 (≈ 0.279 to 5.59 µg/mL)
CCCc1nc2ccccn2c1C(=O)NCc1ccccc1 [Compound 48, N-Benzyl-2-propylimidazo[1,2-a]pyridine-3-carboxamide]	> 20	1 to 20 (≈ 0.293 to 5.87 µg/mL)
CCCc1nc2ccccn2c1C(=O)NCc1ccc(-c2ccccc2)cc1 [Compound 49, N-(Biphenyl-4-ylmethyl)-2-propylimidazo[1,2-a]pyridine-3-carboxamide]	< 1	< 1
O=C(NCc1ccccc1)c1c(C2CC2)nc2ccccn12 [Compound 50, N-Benzyl-2-cyclopropylimidazo[1,2-a]pyridine-3-carboxamide]	1 to 20 (≈ 0.291 to 5.83 µg/mL)	1 to 20 (≈ 0.291 to 5.83 µg/mL)
CC(C)c1nc2ccccn2c1C(=O)NCc1ccccc1 [Compound 51, N-Benzyl-2-isopropylimidazo[1,2-a]pyridine-3-carboxamide]	> 20	> 20
CC(C)c1nc2ccccn2c1C(=O)NCc1ccc(-c2ccccc2)cc1 [Compound 52, N-(Biphenyl-4-ylmethyl)-2-isopropylimidazo[1,2-a]pyridine-3-carboxamide]	1 to 20 (≈ 0.369 to 7.39 µg/mL)	1 to 20 (≈ 0.369 to 7.39 µg/mL)
O=C(NCc1ccccc1)c1c(-c2ccccc2)nc2ccccn12 [Compound 53, N-Benzyl-2-phenylimidazo[1,2-a]pyridine-3-carboxamide]	> 20	> 20
CCc1nc2ccccn2c1C(=O)NCc1ccc(C(C)(C)C)cc1 [Compound 55, N-(4-tert-Butylbenzyl)-2-ethylimidazo[1,2-a]pyridine-3-carboxamide]	< 1	< 1
CCc1nc2ccccn2c1C(=O)NCc1ccc2c(ccn2C)c1 [Compound 56, 2-Ethyl-N-((1-methyl-1H-indol-5-yl)methyl)imidazo[1,2-a]pyridine-3-carboxamide]	< 1	< 1
CCc1nc2ccccn2c1C(=O)NCc1ccc(OC(F)(F)F)cc1 [Compound 57, 2-Ethyl-N-(4-(trifluoromethoxy)benzyl)imidazo[1,2-a]pyridine-3-carboxamide]	< 1	< 1
CCc1nc2ccccn2c1C(=O)NCc1ccc2ccn(C)c2c1 [Compound 58, 2-Ethyl-N-((1-methyl-1H-indol-6-yl)methyl)imidazo[1,2-a]pyridine-3-carboxamide]	1 to 20 (≈ 0.332 to 6.65 µg/mL)	1 to 20 (≈ 0.332 to 6.65 µg/mL)
CCc1nc2ccccn2c1C(=O)NCc1ccc(OC(C)C)cc1 [Compound 60, 2-Ethyl-N-(4-isopropoxybenzyl)imidazo[1,2-a]pyridine-3-carboxamide]	< 1	< 1
CCc1nc2ccccn2c1C(=O)NCc1ccc(OCC(C)C)cc1 [Compound 61, 2-Ethyl-N-(4-isobutoxybenzyl)imidazo[1,2-a]pyridine-3-carboxamide]	< 1	< 1
CCc1nc2ccc(C)cn2c1C(=O)NCc1ccc(-c2ccccc2)cc1 [Compound 62, N-(Biphenyl-4-ylmethyl)-2-ethyl-6-methylimidazo[1,2-a]pyridine-3-carboxamide]	< 1	< 1
CCc1nc2ccc(C)cn2c1C(=O)NCc1ccc(Oc2ccccc2)cc1 [Compound 63, 2-Ethyl-6-methyl-N-(4-phenoxybenzyl)imidazo[1,2-a]pyridine-3-carboxamide]	< 1	< 1
